# Reference: patent EP4741420A1, “PHARMACEUTICAL COMPOSITION FOR PREVENTING OR TREATING OBESITY COMPRISING GLP ANALOGUE AS ACTIVE INGREDIENT” (priority 2023, dated 2025)
# Peptide text beside a SMILES is read from it.
# Tests used:
# [1] = test system: diet-induced obesity (DIO) mouse model; assay: DIO mouse model QD: liver damage markers AST/ALT (Example 8-1); type: in vivo; settings: serum, DIO mice, QD (once daily), 45 nmol/kg/dose
# Description: The anti-obesity effect in the liver was analyzed for the same materials used in Example 7. Specifically, liver damage marker (AST/ALT) analysis, liver weight/fatty liver examination, hepatic triglyceride measurement, and liver ORO staining analysis were performed.
# To analyze the liver damage markers, AST/ALT, blood biochemical analysis was performed on the blood of a material-treated obese mouse model. Specifically, the collected blood was divided into two tubes, approximately 200 µL of the blood was put into each EDTA tube, and the remaining volume was injected into a vacutainer tube containing a coagulant. Blood collected in an EDTA tube was used to measure glycated hemoglobin on the same day, while the blood collected in the vacutainer tube was left at room temperature for 15 to 20 minutes to coagulate, and then centrifuged for 10 minutes to obtain serum. The serum was used for blood biochemical analysis.
# [2] = test system: diet-induced obesity (DIO) mouse model; assay: DIO mouse model QD: weight loss and cumulative food intake (Example 7-1); type: in vivo; settings: DIO mice, QD (once daily), 4-week administration, 45 nmol/kg/dose
# Description: The obesity treatment effect of the long-acting GLP analog prepared in Example 1 was evaluated. Specifically, an obesity animal model was prepared to confirm the obesity treatment effect, and after administering a certain amount of material, the model was subjected to measurement of a body weight and the change in food intake, and biochemical tests. First, to establish a diet-induced obesity mouse model, C57BL/6 DIO mice were fed a high-fat diet for 12 weeks, resulting in a body weight that was 130% that of the control (DIO model). Afterward, the mice were grouped at a specific time point to determine the average weight of the DIO model (46.2±2.2), followed by drug administration to the mice for 4 weeks. Here, the body weight and food intake were measured daily.
# (§1) The anti-obesity effects of SEQ ID NO: 1 prepared in Example 1, and SEQ ID NOs: 6 and 7 prepared in Example 4 were analyzed. […] In addition, as an experimental model, a diet-induced obesity (DIO) mouse model fed a high-fat diet for 3 months was used.
# To analyze the anti-obesity effect, first, the comparative analysis of weight loss effect and cumulative food intake was conducted. The experimental method was the same as described in Example 3.
# GLP-1R = GLP-1R (Homo sapiens, UniProt P43220); assay: GLP-1 activation: cell-based cAMP assay in GLP-1R/CHO cells
# GLP-1R, sequence (P43220 24-463): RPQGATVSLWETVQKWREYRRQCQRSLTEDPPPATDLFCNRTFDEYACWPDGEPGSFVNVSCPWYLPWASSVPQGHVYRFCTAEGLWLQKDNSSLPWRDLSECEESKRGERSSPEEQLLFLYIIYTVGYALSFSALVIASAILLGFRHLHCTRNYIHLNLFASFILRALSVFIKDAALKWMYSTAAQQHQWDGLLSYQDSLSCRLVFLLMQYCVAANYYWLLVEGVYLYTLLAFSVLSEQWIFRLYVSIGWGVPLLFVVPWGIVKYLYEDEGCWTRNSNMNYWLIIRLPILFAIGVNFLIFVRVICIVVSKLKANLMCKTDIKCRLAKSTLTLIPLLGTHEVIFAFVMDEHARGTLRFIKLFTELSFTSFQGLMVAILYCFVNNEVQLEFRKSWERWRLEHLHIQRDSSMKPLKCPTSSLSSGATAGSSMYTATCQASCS
# [3] = test system: diet-induced obesity (DIO) mouse model; assay: DIO mouse model QD: liver weight and steatosis score, H&E (Example 8-2); type: in vivo, mice; settings: QD (once daily), 45 nmol/kg/dose
# Description: To examine liver weight and steatosis, the liver weight elevated by obesity induction and the degree of steatosis after liver H&E staining were scored from grades 0 to 3 to compare the drug's hepatic efficacy. First, after the test was completed, the animal's liver was excised on the day of necropsy to confirm the liver efficacy of the drug. After measuring the weight of the excised liver, the intermediate lobes were frozen in liquid nitrogen for the subsequent measurement of triglycerides. The remaining portion of the liver was fixed in 10% neutral buffered formalin and subjected to histopathological examination.
# For H&E analysis, the liver tissue fixed in the buffered formalin was put into an automatic tissue processor, embedded in paraffin, and then prepared into a paraffin block. Subsequently, the paraffin block was prepared into a tissue section, which was stained with hematoxylin & eosin (H&E). The stained tissue slide was observed using an optical microscope (BX61, Olympus, Japan) and photographed (DP80, Olympus, Japan).
# Histopathological quantification of liver tissue was performed by scoring the degree of steatosis on H&E-stained slides from grades 0 to 3. The contents corresponding to each scoring grade are as follows.
# [4] = test system: diet-induced obesity (DIO) mouse model; assay: DIO mouse model QD: fat weight by tissue (Example 7-3); type: in vivo; settings: fat weight of tissue, DIO mice, QD (once daily), 45 nmol/kg/dose
# Description: as §1
# To analyze the anti-obesity effect, the amount of fat by tissue was measured postmortem to further confirm the efficacy of the peptide in obesity. Specifically, the epididymal, mesenteric, inguinal, and perirenal tissues of animals euthanized by decapitation were excised to measure the fat weights for each tissue and then photographed.
# [5] = Mouse PK after single subcutaneous administration, LC-MS/MS of plasma; type: in vivo, mice; settings: male, C57BL/6N, mouse, in vivo, sc
# Description: Each of the experimental groups and the control was subcutaneously administered once to the dorsal area of a total of 12 mice using a 1 mL syringe equipped with a 26-gauge needle at a dose of 0.2 mg/5 mL/kg. After drug administration, approximately 0.04 to 0.05 mL of blood was collected per individual at the time scheduled for the orbital vein (4 mice were alternately sampled), and the blood collection times were 1, 2, 4, 8, 24 ,32 ,48, 56, 72, 96, and 120 hours. All plasma samples were analyzed using a self-developed LC-MS/MS assay. Pharmacokinetic analysis of blood drugs was performed using non-compartmental analysis, and analysis of pharmacokinetic parameters was performed using Phoenix WinNolin 64 (Version. 8.3.5 340).
# C57BL/6 DIO mice [6] = assay: Diet-induced obesity mouse model: blood/serum biochemical tests (Example 3); type: in vivo; settings: after 4 weeks, 0.20 mg/kg/dose (dose from Table 3)
# Description: Here, the body weight and food intake were measured daily.
# In addition, after the experiment was completed, blood and serum samples were obtained from each mouse model, and biochemical tests were performed for blood glucose, total cholesterol, high-density lipoprotein (HDL), low-density lipoprotein (LDL), and triglycerides.
# [7] = test system: diet-induced obesity (DIO) mouse model; assay: DIO mouse model QD: hepatic triglyceride measurement (Example 8-3); type: in vivo; settings: liver tissue, DIO mice, QD (once daily), 45 nmol/kg/dose
# Description: To measure hepatic triglyceride levels, triglycerides in liver tissue excised on the necropsy day were analyzed using a measurement kit (Biomax, Cat no. BM-TGR-100).
# [8] = test system: diet-induced obesity (DIO) mouse model; assay: DIO mouse model QD: body composition by DEXA (Example 7-2); type: in vivo, mice; settings: QD (once daily), 45 nmol/kg/dose
# Description: as §1
# To analyze the anti-obesity effect, body composition analysis was conducted using Dual Energy X-ray Absorptiometry (DEXA). The DEXA imaging system (VET DXA iNSiGHT) is for measuring the bone density and body fat of an experimental animal through dual X-ray transmission, and after the completion of experimental material administration, DEXA fat mass and muscle mass were measured for each individual. Accordingly, body weight was categorized into BMC, lean, and fat, and the fat reduction was analyzed to provide a more objective assessment of the anti-obesity effect according to Example 7-1.
# C57BL/6 DIO mice [9] = assay: Diet-induced obesity mouse model: body weight and food intake (Example 3); type: in vivo; settings: 4 weeks administration, 0.20 mg/kg/dose
smiles,measurement,setting,value
"CCCCCCCCCCCCCCCC(=O)N[C@@H](CCC(=O)NCCCC[C@H](NC(=O)[C@H](CCCCN)NC(=O)[C@H](CC(=O)O)NC(=O)[C@@H](NC(=O)[C@@H](NC(=O)[C@H](CCCCN)NC(=O)[C@@H](NC(=O)[C@H](CCC(N)=O)NC(=O)[C@@H](NC(=O)[C@H](CC(C)C)NC(=O)[C@H](Cc1c[nH]c2ccccc12)NC(=O)[C@H](CC(N)=O)NC(=O)[C@@H](NC(=O)[C@H](Cc1ccccc1)NC(=O)[C@H](CC(=O)O)NC(=O)[C@H](CCCNC(=N)N)NC(=O)[C@H](C)NC(=O)[C@H](C)NC(=O)[C@H](CC(C)C)NC(=O)[C@H](C)NC(=O)[C@H](CC(=O)O)NC(=O)[C@H](CC(C)C)NC(=O)[C@H](Cc1ccc(O)cc1)NC(=O)[C@@H](NC(=O)[C@H](CO)NC(=O)[C@H](CC(C)C)NC(=O)[C@H](CC(=O)O)NC(=O)[C@H](CO)NC(=O)[C@@H](NC(=O)[C@H](Cc1ccccc1)NC(=O)[C@@H](NC(=O)CNC(=O)[C@H](CCC(=O)O)NC(=O)CNC(=O)[C@@H](N)Cc1c[nH]cn1)[C@@H](C)O)[C@@H](C)O)[C@@H](C)O)[C@@H](C)CC)[C@@H](C)CC)[C@@H](C)O)[C@@H](C)CC)[C@@H](C)O)C(=O)O)C(=O)O [HU020K2FA] (HELM PEPTIDE1{H.G.E.G.T.F.T.S.D.L.S.T.Y.L.D.A.L.A.A.R.D.F.I.N.W.L.I.Q.T.K.I.T.D.K.K}|PEPTIDE2{[CCCCCCCCCCCCCCCC(=O)[*:2]].[gGlu]}$PEPTIDE1,PEPTIDE2,35:R3-2:R2$$$V2.0; N-terminus and C-terminus assumed)",ALT (U/L),[1],34.7±5.9 U/L
same,AST (U/L),[1],68.5±9.2 U/L
same,Comparison of weight change (%),[2],-16.0±3.2%
same,Weight,[2],37.5 ± 2.6 g
same,Weight (%) (Normalized to DIO vehicle),[2],80.3±4.4%
same,Food intake,[2]; cumulative,16.0 ± 1.8 g
same,GLP-1 activity Compared to GLP-1 (Exendin-4),"GLP-1R; Example 5, relative to Exendin-4",23.6%
same,Average (n=4) Relative to GLP-1 (Exendin-4) %,"GLP-1R; GLP-1R/CHO cells, cAMP, relative to Exendin-4 (Example 2)",63.4±29.4%
same,Liver weight,[3]; DIO mice,1.58±0.10
same,Hepatic steatosis test (Score 0~3),"[3]; H&E, mean of grades 0 to 3, DIO mice",0.97±0.47
same,Epididymal,[4],1.71±0.16
same,Inguinal,[4],2.37±0.21
same,Mesentric,[4],0.74±0.21
same,Perirenal,[4],0.33±0.08
same,Tmax,[5],8 h
same,half-life,[5],6.6 h
same,Blood glucose,C57BL/6 DIO mice [6],192.0 ± 20.2 mg/dL
same,High-density lipoprotein,C57BL/6 DIO mice [6],76.0 ± 4.0 mg/dL
same,Low-density lipoprotein,C57BL/6 DIO mice [6],9.8 ± 1.5 mg/dL
same,Toal cholesterol,C57BL/6 DIO mice [6],134.8 ± 10.7 mg/dL
same,Triglyceride,C57BL/6 DIO mice [6],13.6 ± 4.8 mg/dL
same,Liver TG levels (nmol/µ),[7],0.81±0.11 nmol/µ
same,Fat,"[8]; DEXA, DIO mice",9.6 ± 1.0 g
same,Lean,"[8]; DEXA, DIO mice",26.5 ± 1.7 g
same,Weight,"[8]; Table 9, DIO mice",37.5 ± 2.6 g
same,Weight (%) (Normalized to DIO vehicle),"[8]; Table 9, DIO mice",80.3±4.4%
same,Cumulative food intake,C57BL/6 DIO mice [9],55.3 ± 4.0 g
same,Weight,C57BL/6 DIO mice [9],36.6 ± 4.0 g
same,Weight change (%),C57BL/6 DIO mice [9]; compared to day 0,-19.4±4.7%
